Molecules are shown by their SMILES.

This data set can be described thus: in vivo. The conditions noted are these: SCID/rag2, mouse, plasma, iv, 10 mg/kg.

The term AUC denotes concentration integrated over time. A higher AUC goes with high exposure. `CCC1=C[C@@H]2CN(C1)Cc1c([nH]c3ccccc13)[C@@](C(=O)OC)(c1cc3c(cc1OC)N(C)[C@H]1[C@@](O)(C(=O)OC)[C@H](OC(C)=O)[C@]4(CC)C=CCN5CC[C@]31[C@@H]54)C2` [free vinorelbine, vinorelbine] returned an AUC of 112 ng·h/mL.

The record behind these values is patent publication US10722464B2, “Compositions for delivery of drug combinations” (priority 2001, dated 2020).
